# Values of other authors as cited in patent publication US20210363253A1, “USE OF COMBINED TREATMENT OF PD-1 ANTIBODY AND APATINIB FOR TREATING TRIPLE NEGATIVE BREAST CANCER” (JIANGSU HENGRUI MEDICINE CO., LTD., priority 2017, published 2021).
# Conditions: with oxaliplatin, 5-Fu, docetaxel, doxorubicin; preclinical animal experiments
structure (smiles),measurement,value
N#CC1(c2ccc(NC(=O)c3cccnc3NCc3ccncc3)cc2)CCCC1 [Apatinib],efficacy of cytotoxic drugs in combination with Apatinib,significantly increase their efficacy
